PubChem BioAssay AID1918991 (Molecular Pharmacology Branch, DTP, NCI, 2023)
pIC50: −log10 of the molar value. Where “and” joins values, the source holds several entries; their conditions need not be identical. Equal values may be shown once.

Test system: 186277-243-T-J2-PDC complex spheroid growth
Assay: Anticancer human tumor 186277-243-T-J2-PDC patient-derived colon adenocarcinoma cell line growth inhibition [AhR]
Conditions: for viability, T/C: stronger effect = lower value
Procedure, shortened: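 Spheroids combined tumor cells with HUVEC endothelial cells and human MSCs as stroma. AhR antagonists were paired with standard or investigational drugs, each dosed in half-log steps down from near clinical Cmax, or from 10 microM where Cmax was unknown.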

[1] = curve of first compound, second compound 0.1 µM
[2] = curve of first compound, second compound 0.316 µM
[3] = curve of first compound, second compound 1 µM
[4] = curve of first compound, second compound 3.16 µM
[5] = curve of first compound, second compound 10 µM
[6] = second compound 0.1 µM, first compound 0.0316 µM
[7] = second compound 0.1 µM, first compound 0.1 µM
[8] = second compound 0.1 µM, first compound 0.316 µM
[9] = second compound 0.1 µM, first compound 1 µM
[10] = second compound 0.1 µM, first compound 3.16 µM
[11] = second compound 0.1 µM, first compound 10 µM
[12] = second compound 0.316 µM, first compound 0.0316 µM
[13] = second compound 0.316 µM, first compound 0.1 µM
[14] = second compound 0.316 µM, first compound 0.316 µM
[15] = second compound 0.316 µM, first compound 1 µM
[16] = second compound 0.316 µM, first compound 3.16 µM
[17] = second compound 0.316 µM, first compound 10 µM
[18] = second compound 1 µM, first compound 0.0316 µM
[19] = second compound 1 µM, first compound 0.1 µM
[20] = second compound 1 µM, first compound 0.316 µM
[21] = second compound 1 µM, first compound 1 µM
[22] = second compound 1 µM, first compound 3.16 µM
[23] = second compound 1 µM, first compound 10 µM
[24] = second compound 3.16 µM, first compound 0.0316 µM
[25] = second compound 3.16 µM, first compound 0.1 µM
[26] = second compound 3.16 µM, first compound 0.316 µM
[27] = second compound 3.16 µM, first compound 1 µM
[28] = second compound 3.16 µM, first compound 3.16 µM
[29] = second compound 3.16 µM, first compound 10 µM
[30] = second compound 10 µM, first compound 0.0316 µM
[31] = second compound 10 µM, first compound 0.1 µM
[32] = second compound 10 µM, first compound 0.316 µM
[33] = second compound 10 µM, first compound 1 µM
[34] = second compound 10 µM, first compound 3.16 µM
[35] = second compound 10 µM, first compound 10 µM
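Also: spheroids exposed to compounds for seven days before the viability read.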
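For viability, T/C in this document: luminescent signal used as a stand-in for viable cell amount; 100% = DMSO vehicle control wells.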

In the case of `CC1(C)CCC(CN2CCN(c3ccc(C(=O)NS(=O)(=O)c4ccc(NCC5CCOCC5)c([N+](=O)[O-])c4)c(Oc4cnc5[nH]ccc5c4)c3)CC2)=C(c2ccc(Cl)cc2)C1` + CC(CO)NC(=O)c1cc(-c2ccc(Cl)cc2)nn(-c2cnn(C)c2)c1=O, the pIC50 [1] was 5.27, the pIC50 [2] was 5.23 and the pIC50 [3] was 5.24. It also gave a pIC50 [4] of 5.25, a pIC50 [5] of 5.32 and a viability, T/C [6] of 99.3%. It also gave a viability, T/C [7] of 113%, a viability, T/C [8] of 102% and a viability, T/C [9] of 101%. For the same molecule, the viability, T/C [10] was 84.8%, the viability, T/C [11] was 10.5% and the viability, T/C [12] was 108%. For the same molecule, the viability, T/C [13] was 94.8%, the viability, T/C [14] was 96.7% and the viability, T/C [15] was 94.2%. The viability, T/C [16] was 96.2%, the viability, T/C [17] was 11.8% and the viability, T/C [18] was 112%. For the same molecule, the viability, T/C [19] was 98.4%, the viability, T/C [20] was 109% and the viability, T/C [21] was 95.8%. The viability, T/C [22] was 92.1%, the viability, T/C [23] was 10.1% and the viability, T/C [24] was 95.2%. The viability, T/C [25] was 85.8%, the viability, T/C [26] was 83.1% and the viability, T/C [27] was 94.2%. It also gave a viability, T/C [28] of 88.1%, a viability, T/C [29] of 10.2% and a viability, T/C [30] of 77.5%. For the same molecule, the viability, T/C [31] was 96.7%, the viability, T/C [32] was 83.9% and the viability, T/C [33] was 78.7%. For the same molecule, the viability, T/C [34] was 74.4% and the viability, T/C [35] was 9.34%.
Molecule `COc1cc(C2c3cc4c(cc3C(OC3OC5COC(C)OC5C(O)C3O)C3COC(=O)C23)OCO4)cc(OC)c1O` (stereo not given) + Cc1cncc(-c2nc(NCCc3c[nH]c4ccccc34)c3ncn(C(C)C)c3n2)c1 has a pIC50 [1] of 5.67, a pIC50 [2] of 5.84 and a pIC50 [3] of 5.80. The pIC50 [4] was 5.84, the pIC50 [5] was 7.31 and the viability, T/C [6] was 119%. It also gave a viability, T/C [7] of 111%, a viability, T/C [8] of 113% and a viability, T/C [9] of 58.7%. For the same molecule, the viability, T/C [10] was 52%, the viability, T/C [11] was 21.9% and the viability, T/C [12] was 119%. It also gave a viability, T/C [13] of 124%, a viability, T/C [14] of 107% and a viability, T/C [15] of 53.4%. The viability, T/C [16] was 48%, the viability, T/C [17] was 21.1% and the viability, T/C [18] was 110%. For the same molecule, the viability, T/C [19] was 149%, the viability, T/C [20] was 99.8% and the viability, T/C [21] was 59.5%. The viability, T/C [22] was 44.6%, the viability, T/C [23] was 19.9% and the viability, T/C [24] was 127%. It also gave a viability, T/C [25] of 147%, a viability, T/C [26] of 89.3% and a viability, T/C [27] of 59.4%. It also gave a viability, T/C [28] of 42.7%, a viability, T/C [29] of 19.9% and a viability, T/C [30] of 55%. The viability, T/C [31] was 44.5%, the viability, T/C [32] was 20.8% and the viability, T/C [33] was 24.3%. It also gave a viability, T/C [34] of 22.9% and a viability, T/C [35] of 9.36%.
In the case of `CC(C)CC(NC(=O)C(Cc1ccccc1)NC(=O)c1cnccn1)B(O)O` (stereo not given), the viability, T/C (compound 0.000949 µM) was 106% and 98.7% and 108%, the viability, T/C (compound 0.003 µM) was 96.2% and 116% and 102% and the viability, T/C (compound 0.03 µM) was 0.39% and 1.22% and 0.15%. For the same molecule, the viability, T/C (compound 0.0949 µM) was 0.17% and 1.7% and 0.16%, the viability, T/C (compound 0.3 µM) was 0.21% (2×) and 1.15% and the pIC50 (curve of compound) was 7.85 and 7.81 and 8.26.
With `O=C(C=Cn1cnc(-c2cc(C(F)(F)F)cc(C(F)(F)F)c2)n1)NNc1cnccn1` + Cc1ccccc1N=Nc1ccc(NC(=O)c2ccnn2C)c(C)c1 the pIC50 [1] was 6.31, the pIC50 [2] was 6.30 and the pIC50 [3] was 6.27. It also gave a pIC50 [4] of 6.33, a pIC50 [5] of 6.37 and a viability, T/C (second compound 0.1 µM, first compound 0.00949 µM) of 98.7%. For the same molecule, the viability, T/C (second compound 0.1 µM, first compound 0.03 µM) was 107%, the viability, T/C (second compound 0.1 µM, first compound 0.0949 µM) was 101% and the viability, T/C (second compound 0.1 µM, first compound 0.3 µM) was 75.4%. It also gave a viability, T/C (second compound 0.1 µM, first compound 0.949 µM) of 16.8%, a viability, T/C (second compound 0.1 µM, first compound 3 µM) of 8.98% and a viability, T/C (second compound 0.316 µM, first compound 0.00949 µM) of 94.2%. For the same molecule, the viability, T/C (second compound 0.316 µM, first compound 0.03 µM) was 102%, the viability, T/C (second compound 0.316 µM, first compound 0.0949 µM) was 108% and the viability, T/C (second compound 0.316 µM, first compound 0.3 µM) was 77.7%. The viability, T/C (second compound 0.316 µM, first compound 0.949 µM) was 16.9%, the viability, T/C (second compound 0.316 µM, first compound 3 µM) was 7.87% and the viability, T/C (second compound 1 µM, first compound 0.00949 µM) was 92.9%. For the same molecule, the viability, T/C (second compound 1 µM, first compound 0.03 µM) was 106%, the viability, T/C (second compound 1 µM, first compound 0.0949 µM) was 108% and the viability, T/C (second compound 1 µM, first compound 0.3 µM) was 82.6%. The viability, T/C (second compound 1 µM, first compound 0.949 µM) was 18.7%, the viability, T/C (second compound 1 µM, first compound 3 µM) was 8.79% and the viability, T/C (second compound 3.16 µM, first compound 0.00949 µM) was 96.4%. It also gave a viability, T/C (second compound 3.16 µM, first compound 0.03 µM) of 88.4%, a viability, T/C (second compound 3.16 µM, first compound 0.0949 µM) of 106% and a viability, T/C (second compound 3.16 µM, first compound 0.3 µM) of 71.7%. For the same molecule, the viability, T/C (second compound 3.16 µM, first compound 0.949 µM) was 16.4%, the viability, T/C (second compound 3.16 µM, first compound 3 µM) was 10.3% and the viability, T/C (second compound 10 µM, first compound 0.00949 µM) was 90.2%. It also gave a viability, T/C (second compound 10 µM, first compound 0.03 µM) of 88%, a viability, T/C (second compound 10 µM, first compound 0.0949 µM) of 83.7% and a viability, T/C (second compound 10 µM, first compound 0.3 µM) of 63%. The viability, T/C (second compound 10 µM, first compound 0.949 µM) was 20.5% and the viability, T/C (second compound 10 µM, first compound 3 µM) was 12.7%.
For `Cc1ccccc1N=Nc1ccc(NC(=O)c2ccnn2C)c(C)c1`, the viability, T/C (compound 1 µM) was 99.2% [middle of 20 runs], the viability, T/C (compound 3.16 µM) was 96% [middle of 20 runs] and the viability, T/C (compound 10 µM) was 88.8% [middle of 20 runs]. For the same molecule, the pIC50 (compound alone, run of 07/26/2022) was < 5.00.
`NS(=O)(=O)OCC1CC(n2ccc3c(NC4CCc5ccccc54)ncnc32)CC1O` (stereo not given) + Cc1ccccc1N=Nc1ccc(NC(=O)c2ccnn2C)c(C)c1 gave a pIC50 [1] of 6.07, a pIC50 [2] of 6.20 and a pIC50 [3] of 6.23. For the same molecule, the pIC50 [4] was 6.34, the pIC50 [5] was 6.52 and the viability, T/C [6] was 106%. The viability, T/C [7] was 97.9%, the viability, T/C [8] was 77.6% and the viability, T/C [9] was 43.7%. The viability, T/C [10] was 23.1%, the viability, T/C [11] was 7.4% and the viability, T/C [12] was 109%. The viability, T/C [13] was 117%, the viability, T/C [14] was 67.1% and the viability, T/C [15] was 38%. The viability, T/C [16] was 19.6%, the viability, T/C [17] was 8.23% and the viability, T/C [18] was 110%. It also gave a viability, T/C [19] of 110%, a viability, T/C [20] of 61.4% and a viability, T/C [21] of 38.6%. It also gave a viability, T/C [22] of 20.1%, a viability, T/C [23] of 9.57% and a viability, T/C [24] of 103%. The viability, T/C [25] was 97.5%, the viability, T/C [26] was 50.2% and the viability, T/C [27] was 36.3%. It also gave a viability, T/C [28] of 13.6%, a viability, T/C [29] of 5.34% and a viability, T/C [30] of 93.7%. For the same molecule, the viability, T/C [31] was 80%, the viability, T/C [32] was 43.5% and the viability, T/C [33] was 29.8%. It also gave a viability, T/C [34] of 10.1% and a viability, T/C [35] of 4.53%.
